#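 Cells were grown in 96-well plates and exposed to each compound for 48 hours at five concentrations; endpoints were interpolated linearly between bracketing concentrations, or set to the highest concentration if not reached. GI50 = concentration required for 50% inhibition of growth.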 Calls of active or inactive are those of the source. No stated cut-off is given here; in the data, active = GI50 up to about 1.1 µM and inactive = higher.
# Assays:
# Experiment in all cases: NCI-60 cell line screen, 48 h
# [1] = tested on: MOLT-4
# [2] = tested on: Malme-3M
# [3] = tested on: SNB-75
# [4] = tested on: CCRF-CEM
# [5] = tested on: TK-10
# [6] = tested on: RXF 393
# [7] = tested on: SK-MEL-5
# [8] = tested on: ACHN
# [9] = tested on: KM12
# [10] = tested on: HCT-116
# [11] = tested on: K562
# [12] = tested on: NCI-H226
# [13] = tested on: U-251
# [14] = tested on: SN12C
# [15] = tested on: IGROV-1
# [16] = tested on: SK-OV-3
# [17] = tested on: HCT-15
# [18] = tested on: HOP-62
# [19] = tested on: SF-539
# [20] = tested on: A498
SMILES,GI50 [1],GI50 [2],GI50 [3],GI50 [4],GI50 [5],GI50 [6],GI50 [7],GI50 [8],GI50 [9],GI50 [10],GI50 [11],GI50 [12],GI50 [13],GI50 [14],GI50 [15],GI50 [16],GI50 [17],GI50 [18],GI50 [19],GI50 [20]
CC(C)CCCCCCCCCCCCC(=O)NCC(=O)NC1C(C)OC(Nc2[nH]cnc3ncnc2-3)C(O)C1O (centres undefined),0.00102 µM (active),0.000332 µM (active),0.000535 µM (active),0.0048 µM (active),0.00102 µM (active),< 0.01 µM (active),0.00289 µM (active),0.000468 µM (active),0.000341 µM (active),0.000244 µM (active),0.00644 µM (active),0.0024 µM (active),0.000425 µM (active),0.00214 µM (active),0.000782 µM (active),< 0.01 µM (active),< 0.0247 µM,0.000361 µM (active),0.000931 µM (active),–
Cc1cc2c(c(C(=O)O)c1C)-c1cccc(F)c1C2=O,> 100 µM (inactive),> 100 µM (inactive),> 100 µM (inactive),> 100 µM (inactive),> 100 µM (inactive),66.7 µM (inactive),> 100 µM (inactive),> 100 µM (inactive),> 100 µM (inactive),–,> 100 µM (inactive),55.1 µM (inactive),> 100 µM (inactive),> 100 µM (inactive),> 100 µM (inactive),> 100 µM (inactive),> 100 µM,> 100 µM (inactive),–,–
c1ccc2c(c1)c1c(n2CCOCCN2CCOCC2)CCCC1,25 µM (inactive),13.8 µM (inactive),2.36 µM (inactive),21.8 µM (inactive),18.4 µM (inactive),–,18.2 µM (inactive),30.8 µM (inactive),31.8 µM (inactive),29.8 µM (inactive),33.6 µM (inactive),–,23.6 µM (inactive),> 10 µM (inactive),36 µM (inactive),55.2 µM (inactive),36.5 µM,26.3 µM (inactive),86.1 µM (inactive),34.1 µM (inactive)
CN(C)c1ccc(/C=C/C(=O)CC(=O)/C=C/c2ccc(N(C)C)cc2)cc1,> 100 µM (inactive),> 100 µM (inactive),> 100 µM (inactive),> 100 µM (inactive),> 100 µM (inactive),> 100 µM (inactive),> 100 µM (inactive),> 100 µM (inactive),> 100 µM (inactive),57.3 µM (inactive),> 100 µM (inactive),> 100 µM (inactive),> 100 µM (inactive),> 100 µM (inactive),> 100 µM (inactive),> 100 µM (inactive),> 100 µM,> 100 µM (inactive),> 100 µM (inactive),–
COC(=O)C1=C(C(=O)OC)C23C=CC=CC24C(C(=O)OC)=C(C(=O)OC)C4C1C3 (centres undefined),> 100 µM (inactive),> 100 µM (inactive),0.743 µM (active),69.7 µM (inactive),> 100 µM (inactive),> 100 µM (inactive),> 100 µM (inactive),> 100 µM (inactive),> 100 µM (inactive),77.1 µM (inactive),30.5 µM (inactive),–,> 100 µM (inactive),> 100 µM (inactive),> 100 µM (inactive),–,59.8 µM,> 100 µM (inactive),> 100 µM (inactive),–
O=C1NN=C2C=C(c3ccc(Cl)cc3)CC(c3cccc(Br)c3)C12 (centres undefined),43.9 µM (inactive),> 100 µM (inactive),80.9 µM (inactive),22 µM (inactive),54.5 µM (inactive),62.8 µM (inactive),> 100 µM (inactive),33.7 µM (inactive),> 100 µM (inactive),64.9 µM (inactive),32.9 µM (inactive),73.6 µM (inactive),59.2 µM (inactive),> 100 µM (inactive),51.3 µM (inactive),> 100 µM (inactive),19.3 µM,> 100 µM (inactive),> 100 µM (inactive),–
CCOc1ccc(NC(=S)N/C=C(/C(C)=O)C(=O)Nc2ccccc2C)cc1,> 100 µM (inactive),–,–,–,> 100 µM (inactive),> 100 µM (inactive),> 100 µM (inactive),> 100 µM (inactive),> 100 µM (inactive),> 100 µM (inactive),> 100 µM (inactive),> 100 µM (inactive),> 100 µM (inactive),> 100 µM (inactive),> 100 µM (inactive),> 100 µM (inactive),> 100 µM,> 100 µM (inactive),> 100 µM (inactive),–
C[Si](C)(C)/C=C\CCCN1C(=O)CCC1=O,> 100 µM (inactive),> 100 µM (inactive),62.5 µM (inactive),64.7 µM (inactive),> 100 µM (inactive),–,93.8 µM (inactive),> 100 µM (inactive),> 100 µM (inactive),> 100 µM (inactive),60 µM (inactive),–,> 100 µM (inactive),> 100 µM (inactive),> 100 µM (inactive),> 100 µM (inactive),> 100 µM,–,> 100 µM (inactive),> 100 µM (inactive)
CCOC(=O)/C(C#N)=C\Sc1ccccc1,5.05 µM (inactive),–,18.8 µM (inactive),7.83 µM (inactive),32.4 µM (inactive),16.8 µM (inactive),22.3 µM (inactive),17.1 µM (inactive),15.9 µM (inactive),16.8 µM (inactive),18.3 µM (inactive),16.7 µM (inactive),11.3 µM (inactive),14 µM (inactive),10.2 µM (inactive),36.6 µM (inactive),–,36.1 µM (inactive),15.8 µM (inactive),–
O=c1oc2ccc([N+](=O)[O-])cc2c(Nc2ccc3c(c2)Oc2ccccc2O3)c1[N+](=O)[O-],–,69.8 µM (inactive),40.9 µM (inactive),30.1 µM (inactive),37.3 µM (inactive),56 µM (inactive),29.1 µM (inactive),32.2 µM (inactive),31.9 µM (inactive),29 µM (inactive),30 µM (inactive),32.4 µM (inactive),18.9 µM (inactive),32.3 µM (inactive),28.6 µM (inactive),41.4 µM (inactive),31.1 µM,38.9 µM (inactive),25.4 µM (inactive),–
CN(CCO)c1nc2c(c(=O)[nH]1)CNCC2,> 100 µM (inactive),> 100 µM (inactive),32.8 µM (inactive),> 100 µM (inactive),> 100 µM (inactive),> 100 µM (inactive),> 100 µM (inactive),> 100 µM (inactive),> 100 µM (inactive),> 100 µM (inactive),> 100 µM (inactive),> 100 µM (inactive),> 100 µM (inactive),> 100 µM (inactive),> 100 µM (inactive),> 100 µM (inactive),> 100 µM,> 100 µM (inactive),> 100 µM (inactive),–
COc1ccccc1NC(=O)CC(=O)NNCC(=O)Nc1nc(-c2ccccc2)cs1,> 100 µM (inactive),–,> 100 µM (inactive),> 100 µM (inactive),> 100 µM (inactive),> 100 µM (inactive),> 100 µM (inactive),–,> 100 µM (inactive),> 100 µM (inactive),> 100 µM (inactive),40.6 µM (inactive),> 100 µM (inactive),> 100 µM (inactive),> 100 µM (inactive),> 100 µM (inactive),–,> 100 µM (inactive),> 100 µM (inactive),–
CCCCNc1nc(C#N)c(N)s1,> 100 µM (inactive),> 100 µM (inactive),> 100 µM (inactive),–,> 100 µM (inactive),–,–,> 100 µM (inactive),> 100 µM (inactive),> 100 µM (inactive),> 100 µM (inactive),> 100 µM (inactive),> 100 µM (inactive),> 100 µM (inactive),> 100 µM (inactive),> 100 µM (inactive),> 100 µM,> 100 µM (inactive),> 100 µM (inactive),–
CCCCCC(C(O)C#N)C(O)(C(F)(F)F)C(F)(F)F (centres undefined),> 10 µM (inactive),> 10 µM (inactive),> 10 µM (inactive),> 10 µM (inactive),> 10 µM (inactive),–,> 10 µM (inactive),> 10 µM (inactive),> 10 µM (inactive),> 10 µM (inactive),> 10 µM (inactive),–,> 10 µM (inactive),> 10 µM (inactive),> 10 µM (inactive),> 10 µM (inactive),> 10 µM,> 10 µM (inactive),> 10 µM (inactive),–
CC1(C)C(=S)C(C)(C)C1=S,> 100 µM (inactive),> 100 µM (inactive),> 100 µM (inactive),–,> 100 µM (inactive),–,> 100 µM (inactive),> 100 µM (inactive),> 100 µM (inactive),> 100 µM (inactive),> 100 µM (inactive),> 100 µM (inactive),> 100 µM (inactive),> 100 µM (inactive),> 100 µM (inactive),> 100 µM (inactive),> 100 µM,> 100 µM (inactive),> 100 µM (inactive),–
CN1CCN(c2ccc3nc(C4=C(O)C(=O)[C@@H]5C(=C4O)N=C(CO)N5C)[nH]c3n2)CC1,> 100 µM (inactive),> 100 µM (inactive),97.3 µM (inactive),97.5 µM (inactive),–,> 100 µM (inactive),–,> 100 µM (inactive),> 100 µM (inactive),94.2 µM (inactive),24 µM (inactive),> 100 µM (inactive),41.4 µM (inactive),> 100 µM (inactive),> 100 µM (inactive),> 100 µM (inactive),> 100 µM,> 100 µM (inactive),33.5 µM (inactive),–

# Reference: ChEMBL document CHEMBL1201862, “PubChem BioAssay data set” (2004)
